The test system of one data set is osteocalcin. Nature of the data set: Serum osteocalcin suppression, 28-day repeat dose mouse model. Format: in vivo. To be noted: for Osteocalcin Suppression (ED80 dose): oral gavage 28 days, serum osteocalcin; for Serum osteocalcin (OC) EAUC50 / Serum osteocalcin (OC) EAUC80: data set 2, 28-day repeat dose model.
The target of data set [1] is full-length glucocorticoid (GR) protein (Homo sapiens (Human), UniProt P04150). Nature of the data set: Glucocorticoid receptor fluorescence polarization ligand binding (GRFP) assay. In general terms: Fluorescence polarisation rises when a labelled molecule tumbles more slowly, as on binding a larger partner.
Excerpt: The glucocorticoid receptor fluorescence polarization ligand binding (GRFP) assay is used to evaluate direct binding of testing compounds to full-length glucocorticoid (GR) protein. Reagents for this assay are purchased from Invitrogen in a test kit. A fluorescent labeled GR ligand is used as a fluorescent tracer and test compounds compete with the fluorescent tracer for GR binding. The change in polarization value in the presence of test compounds is due to binding of test compounds to GR and is used to determine IC50 and relative binding affinity of test compounds for GR.
The test system of another data set is IL-6. In words: IL-6 production in IL-1β-stimulated A549 cells. Format: cell-based, human. The protocol: IL-6 IC50 and % Inhibition
Human A549 lung epithelial cells (American Type Culture Collection, Rockville, Md.) were cultured in Kaighn's F-12K medium with penicillin-streptomycin (10 U/mL) and 10% heat-inactivated fetal bovine serum (all from Invitrogen, Grand Island, N.Y.). A549 cells were plated at a density of 30,000 cells/well in 96-well plates and incubated overnight at 37° C. and with 5% CO2. The cells were serum-starved by replacing the growth medium with serum-free Kaighn's F-12K medium with penicillin-streptomycin (10 U/mL) and, again, incubating overnight at 37° C. and with 5% CO2. On the third day, the medium was replaced with fresh serum-free medium and the cells were incubated with or without compound (vehicle was DMSO at 0.1% maximum concentration) for approximately 1 hour and then stimulated with 1 ng/mL recombinant human IL-1β (R&D Systems, Minneapolis, Minn.) for 20 hours at 37° C. and with 5% CO2. Cell supernatants were collected for determination of IL-6 levels using MSD (Meso Scale Discovery, Gaithersburg, Md.) 96-well Single Spot plates as per the manufacturer's instructions. Plates were read with an MSD Sector Imager 6000. […] Vehicle was used to define the 0% inhibition control. Percent inhibition for each compound concentration, relative to these controls, was calculated using Excel (Microsoft, Redmond, Wash.). […]

Data set [2] relates to Mouse Collagen-Induced Arthritis. Nature of the data set: Therapeutic mouse collagen-induced arthritis (mCIA) model. Format: in vivo. The source says:
(§1) Mouse Collagen-induced arthritis is a commonly used chronic, preclinical model of rheumatoid arthritis in which joint swelling and bone destruction occur following immunization with type II collagen. Reduction of disease incidence and severity has been shown previously to be predictive of disease-modification and signs and symptoms mitigation, respectively, in a clinical setting.
In the therapeutic mCIA model, induction of disease incidence and severity was synchronized via LPS stimulation. Male DBA/J mice were immunized with 100 ug of bovine type II collagen (bCII) on day 0. All mice received an intraperitoneal injection of 20 μg of LPS on day 28 and disease was allowed to develop through day 34. At day 34, all mice had disease (incidence=100%) with an average severity score of seven. Dosing of compounds was initiated in the therapeutic mode on day 34 and continued through day 49. Different treatments were compared by measuring the decrease in incidence (i.e., resolution of disease) and the decrease in severity of paw swelling over time.

Data set [3] has as its system house dust mite-induced BAL inflammatory cell influx. In words: House dust mite model of asthma, BAL fluid cell infiltration. The note with it: mice, 0.1, 1 and 10 mg/kg, p.o., b.i.d. The data set is classed as in vivo, mouse.
Another data set has as its system TNFα. Nature of the data set: LPS-induced serum TNFα suppression, 28-day repeat dose mouse model. Format: in vivo.
The subject of data set [4] is Mouse Collagen-Induced Arthritis. In words: Traditional mouse collagen-induced arthritis (mCIA) model. The data set is classed as in vivo. The protocol:
as §1
In the traditional mCIA model, male DBA/J mice were immunized with 50 μg chick type II collagen (cCII) in complete Freund's adjuvant and then boosted 21 days later with 50 μg cCII in incomplete Freund's adjuvant. Treatment with compounds was initiated on the morning of the boost and continued for 56 days. The effectiveness of treatment was measured by disease incidence (i.e., number of mice showing any sign of disease) and disease severity, both of which were measured twice a week.

The nature of data set [5]: Solubility and intrinsic dissolution. Format: physicochemical. The note with it: compared with Example 1.
The subject of data set [6] is cortical bone formation rate. Nature of the data set: Cortical bone histomorphometry, bone formation rate (BFR). Format: in vivo, mouse. The protocol: Sigma-Aldrich, St. […] Calcein incorporates into the bone mineral and allows measurement of bone formation rate. Calcein was dissolved in 2% sodium bicarbonate. During the tissue harvest, the left tibiae were excised and cleaned for cortical histomorphometry measurements. After all skin and muscle were removed, tibiae were placed in 70% ethanol (4° C.) in the dark for a minimum of 24 hours. Ground transverse sections were used for histomorphometric analysis of cortical bone. Bones were sectioned using a low-speed saw (Isomet, Buehler, Lake Bluff, Ill.) equipped with a diamond wafer blade. The end of each tibia was removed proximal to tibia-fibula synostosis and a […] cross-section was cut. Using a roughened glass plate and a cork, sections were ground to […] until transparent and all labels were distinguishable under a fluorescent microscope. […] Sigma-Aldrich, St. Louis, Mo.). Sections were mounted using Eukitt Quick Mounting Medium (#03989, Sigma-Aldrich, St. Louis, Mo.) after which coverslip was applied. […] Bone formation rate was calculated by the following equation: (Inter-label width/Label interval)*(Labeled perimeter/Bone perimeter). At least five samples were measured from each treatment group in each study.

A short description of data set [7]: Plasma exposure (AUC) in the mouse. Format: in vivo.
Excerpt: Drug exposure, defined as drug plasma concentrations integrated over time
Due to blood volume sampling limitations in mice, AUC(0-4 hr) values were used to make pharmacodynamic comparisons.
[8] abbreviates: data set 2, 28-day repeat dose model, unit assumed.
[9] abbreviates: data set 2, 28-day repeat dose model.

Chain of full-length glucocorticoid (GR) protein (P04150 whole entry): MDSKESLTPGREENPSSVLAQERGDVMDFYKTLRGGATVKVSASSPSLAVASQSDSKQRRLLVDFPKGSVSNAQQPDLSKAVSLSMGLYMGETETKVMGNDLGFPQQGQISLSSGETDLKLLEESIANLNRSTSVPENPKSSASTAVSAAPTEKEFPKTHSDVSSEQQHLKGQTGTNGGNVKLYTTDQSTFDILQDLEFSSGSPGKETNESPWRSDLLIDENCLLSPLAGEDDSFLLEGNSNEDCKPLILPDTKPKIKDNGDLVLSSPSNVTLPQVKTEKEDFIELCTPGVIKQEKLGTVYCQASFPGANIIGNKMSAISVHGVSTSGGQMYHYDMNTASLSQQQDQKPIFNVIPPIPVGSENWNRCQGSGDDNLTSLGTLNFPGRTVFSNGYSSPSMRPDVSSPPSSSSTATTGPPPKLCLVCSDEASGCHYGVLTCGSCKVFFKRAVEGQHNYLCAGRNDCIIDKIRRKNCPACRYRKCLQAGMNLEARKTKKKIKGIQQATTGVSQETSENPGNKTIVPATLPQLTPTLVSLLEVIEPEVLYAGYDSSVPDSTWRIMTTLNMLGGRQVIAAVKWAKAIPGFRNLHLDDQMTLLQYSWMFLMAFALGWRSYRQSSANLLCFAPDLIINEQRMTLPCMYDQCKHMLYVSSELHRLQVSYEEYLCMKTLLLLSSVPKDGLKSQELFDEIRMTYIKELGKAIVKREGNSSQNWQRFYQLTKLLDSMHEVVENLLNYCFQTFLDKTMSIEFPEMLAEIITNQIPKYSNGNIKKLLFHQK

As to `Cc1cnc(NC(=O)c2ccc3c(c2)CC[C@@H]2C[C@@](O)(C(F)(F)F)CC[C@@]32Cc2ccccc2)c(C)n1` [Comparator B, (4βS,7R,8αR)-4β-benzyl-N-(3,5-dimethylpyrazin-2-yl)-7-hydroxy-7-(trifluoromethyl)-4β,5,6,7,8,8α,9,10-octahydrophenanthrene-2-carboxamide], in the data set with osteocalcin (mouse), the “Osteocalcin Suppression (ED80 dose)” value was more than 10 mg/kg.

On to `Cc1ncccc1NC(=O)c1ccc2c(c1)CC[C@@H]1C[C@@](O)(CCC(F)(F)F)CC[C@@]21Cc1ccccc1` [Comparator C, (4βS,7S,8αR)-4β-benzyl-7-hydroxy-N-(2-methylpyridin-3-yl)-7-(3,3,3-trifluoropropyl)-4β,5,6,7,8,8α,9,10-octahydrophenanthrene-2-carboxamide], for which the “Osteocalcin Suppression (ED80 dose)” value in the data set with osteocalcin (mouse) worked out at 2.84 mg/kg.

Turning to `Cc1ccncc1NC(=O)c1ccc2c(c1)CC[C@@H]1C[C@@](O)(C(F)(F)F)CC[C@@]21Cc1ccccc1` [Comparator D, (4βS,7R,8αR)-4β-benzyl-7-hydroxy-N-(4-methylpyridin-3-yl)-7-(trifluoromethyl)-4β,5,6,7,8,8α,9,10-octahydrophenanthrene-2-carboxamide], in the data set with osteocalcin (mouse), the “Osteocalcin Suppression (ED80 dose)” value was 3.06 mg/kg.

For `Cc1ncccc1NC(=O)c1ccc2c(c1)C(=O)C[C@@H]1C[C@@](O)(C(F)(F)F)CC[C@@]21Cc1ccccc1` [Comparator E, (4βS,7R,8αS)-4β-benzyl-7-hydroxy-N-(2-methylpyridin-3-yl)-10-oxo-7-(trifluoromethyl)-4β,5,6,7,8,8α,9,10-octahydrophenanthrene-2-carboxamide], the “Osteocalcin Suppression (ED80 dose)” value in the data set on osteocalcin (mouse) turned out to be 1.71 mg/kg.

For the compound `Cc1ncccc1NC(=O)c1ccc2c(c1)[C@H](O)C[C@@H]1C[C@@](O)(C(F)(F)F)CC[C@@]21Cc1ccccc1` [Comparator F, (4βS,7R,8αR,10R)-4β-benzyl-7,10-dihydroxy-N-(2-methylpyridin-3-yl)-7-(trifluoromethyl)-4β,5,6,7,8,8α,9,10-octahydrophenanthrene-2-carboxamide], the “Osteocalcin Suppression (ED80 dose)” value in the data set with osteocalcin (mouse) was more than 10 mg/kg.

`Cc1c(NC(=O)c2ccc3c(c2)CC[C@@H]2C[C@@](O)(C(F)(F)F)CC[C@@]32Cc2ccccc2)ccc[n+]1[O-]` [Comparator G] came in with an IC50 in [1] of 2.13 nM.

Take `Cc1ncccc1NC(=O)c1ccc2c(c1)CC[C@@H]1C[C@@](O)(C(F)F)CC[C@@]21Cc1ccccc1` [Comparator H, (4βS,7R,8αR)-4β-benzyl-7-(difluoromethyl)-7-hydroxy-N-(2-methylpyridin-3-yl)-4β,5,6,7,8,8α,9,10-octahydrophenanthrene-2-carboxamide]: the “Osteocalcin Suppression (ED80 dose)” value in the data set on osteocalcin (mouse) amounted to 1.46 mg/kg.

Regarding `Cc1ncccc1NC(=O)c1ccc2c(c1)C=C[C@@H]1C[C@@](O)(C(F)(F)F)CC[C@@]21Cc1ccccc1` [Comparator I, (4βS,7R,8αS)-4β-benzyl-7-hydroxy-N-(2-methylpyridin-3-yl)-7-(trifluoromethyl)-4β,5,6,7,8,8α-hexahydrophenanthrene-2-carboxamide], the “Osteocalcin Suppression (ED80 dose)” value in the data set on osteocalcin (mouse) is more than 20 mg/kg.

Turning to `Cc1ncc(NC(=O)c2ccc3c(c2)CC[C@@H]2C[C@@](O)(CCC(F)(F)F)CC[C@@]32Cc2ccccc2)c(C)n1` [Comparator J, (4βS,7S,8αR)-4β-benzyl-N-(2,4-dimethylpyrimidin-5-yl)-7-hydroxy-7-(3,3,3-trifluoropropyl)-4β,5,6,7,8,8α,9,10-octahydrophenanthrene-2-carboxamide], the “Osteocalcin Suppression (ED80 dose)” value in the data set with osteocalcin (mouse) was 3.58 mg/kg.

In the data set on IL-6 (IL-1β 1 ng/mL, listed as Example 1 free base), `Cc1ncccc1NC(=O)c1ccc2c(c1)CC[C@@H]1C[C@@](O)(C(F)(F)F)CC[C@@]21Cc1ccccc1` [Example 1, (4βS,7R,8αR)-4β-benzyl-7-hydroxy-N-(2-methylpyridin-3-yl)-7-(trifluoromethyl)-4β,5,6,7,8,8α,9,10-octahydrophenanthrene-2-carboxamide] gave a half-maximal inhibitory concentration (IC50) of 0.36 nM. In data set [2] (data set 2), this compound came in with a Disease incidence (therapeutic mCIA) EAUC50 of 0.12 µg·h/mL and a Disease incidence (therapeutic mCIA) EAUC80 of 0.33 µg·h/mL. In data set [2] (data set 2, unit assumed), the Disease severity (therapeutic mCIA) EAUC50 was found to be 0.09 µg·h/mL and the Disease severity (therapeutic mCIA) EAUC80 turned out to be 0.19 µg·h/mL. Besides, the “Therapeutic mCIA (ED50 dose)” value in [2] (mouse) is on record as “less than 1 mg/kg”. Moreover, the “cell infiltration into BAL fluid” value in data set [3] is “mitigated cell infiltration into BAL fluid dose-dependently”. In the data set on TNFα (setting [8]), this compound returned a Serum TNFα EAUC50 of 0.22 µg·h/mL and a Serum TNFα EAUC80 of 0.33 µg·h/mL. Moreover, the “Disease incidence (traditional mCIA) EAUC80” value in data set [4] (data set 2) is 0.10. In the data set with osteocalcin, the Serum osteocalcin (OC) EAUC50 was found to be 1310 ng·h/mL and the Serum osteocalcin (OC) EAUC80 is 4150 ng·h/mL.

Regarding `Cc1ncccc1NC(=O)c1ccc2c(c1)CC[C@@H]1C[C@@](OP(=O)(O)O)(C(F)(F)F)CC[C@@]21Cc1ccccc1` [Example 2, (2R,4αS,10αR)-4α-benzyl-7-((2-methylpyridin-3-yl)carbamoyl)-2-(trifluoromethyl)-1,2,3,4,4α,9,10,10α-octahydrophenanthren-2-yl dihydrogen phosphate], in data set [5], the “solubility and intrinsic dissolution” value was “enhanced”.

`C[C@]12C=CC(=O)C=C1CC[C@@H]1[C@@H]2[C@@H](O)C[C@@]2(C)[C@H]1CC[C@]2(O)C(=O)CO` [Prednisolone]: in [6] (AUC 0-4 hr, mouse), the “Cortical bone formation rate (BFR) EAUC50” value amounted to 0.09 µg·h/mL and the “Cortical bone formation rate (BFR) EAUC80” value was 0.60 µg·h/mL. Moreover, in data set [6] (setting [9]), the “Cortical bone formation rate (BFR) EAUC50” value is reported as 0.10 and the “Cortical bone formation rate (BFR) EAUC80” value turned out to be 0.66. For the same compound, in the data set with IL-6 (additional result (footnote a)), the “IL-6 % Inhibition” value worked out at 100%. In addition, in data set [2] (AUC 0-4 hr, mouse), the “Disease severity (therapeutic mCIA) EAUC50” value came out at 0.38 µg·h/mL and the “Disease severity (therapeutic mCIA) EAUC80” value is 1.19 µg·h/mL. In data set [2] (data set 2), the Disease incidence (therapeutic mCIA) EAUC50 was 0.68 µg·h/mL and the Disease incidence (therapeutic mCIA) EAUC80 came out at 1.38 µg·h/mL. In data set [2] (data set 2, unit assumed), this compound showed a Disease severity (therapeutic mCIA) EAUC50 of 0.38 µg·h/mL and a Disease severity (therapeutic mCIA) EAUC80 of 1.19 µg·h/mL. The “Therapeutic mCIA (ED80 dose)” value in [2] (mouse) stood at 5.5 mg/kg. In the data set on TNFα (AUC 0-4 hr, mouse), the “Serum TNFα EAUC50” value worked out at 0.81 µg·h/mL and the “Serum TNFα EAUC80” value was 0.95 µg·h/mL. In the data set with TNFα (setting [8]), this compound showed a Serum TNFα EAUC50 of 0.82 µg·h/mL and a Serum TNFα EAUC80 of 0.95 µg·h/mL. The “TNFα Suppression (ED80 dose)” value with TNFα (mouse, oral gavage 28 days, LPS-induced serum TNFα) was found to be 2.10 mg/kg. Moreover, in data set [4] (AUC 0-4 hr, mouse), the “Disease incidence (traditional mCIA) EAUC50” value came to 0.25 µg·h/mL and the “Disease incidence (traditional mCIA) EAUC80” value came to 0.60 µg·h/mL. Further, the “Disease incidence (traditional mCIA) EAUC80” value in data set [4] (data set 2) stood at 0.50. Also, the “AUC(0-4 hr) as share of AUC(0-24 hr)” value in data set [7] is reported as “more than 95%”. In the data set with osteocalcin (AUC 0-4 hr, mouse), the “Serum osteocalcin EAUC50” value is 560 ng·h/mL and the “Serum osteocalcin EAUC80” value came out at 1600 ng·h/mL. For the same compound, in the data set on osteocalcin, the Serum osteocalcin (OC) EAUC50 was 560 ng·h/mL and the Serum osteocalcin (OC) EAUC80 was found to be 1640 ng·h/mL.

A word on the IC50: it is the concentration needed to halve the response being measured. A higher IC50 goes with lower potency.

The values above are taken from patent US8901310B2, “Tricyclic compounds, compositions, and methods” (Pfizer Inc., priority 2007, dated 2014).
